Data set [1] deals with Human iPSC-derived neural progenitor cells. The experiment in a line: Acetylation level assay (Western blot). Type of data set: cell-based. The conditions noted are these: 6 h at 37° C.; for amount of cellular acetyl-α-Tubulin: other compounds 10 μM; for Histone acetylation (H3K9 and H4K12): 10 μM. On the technique in general: In western blotting, separated proteins are transferred to a membrane and probed.

Data set [2] in a line: Brain penetrance comparison. The conditions noted are these: in vivo.
Another data set in a line: PET/CT imaging in rats. Format: in vivo, Sprague-Dawley rats. As to the method:
8 male Sprague-Dawley rats (Charles River Laboratories) were used for PET imaging. […] For intravenous administration, a catheter with an extension line was placed in a lateral tail vein. Each animal received a bolus injection of either vehicle (1:1:8 DMSO/Tween80/saline) or blocking agent in solution (1 mg/kg, 1 mg/mL in 1:1:8 DMSO/Tween80/saline) immediately prior to injection of the radiotracer.
After injection of a radiotracer bolus ([…] Example 2) a 90 min dynamic PET scan was acquired in pairs for all animals. PET scans were performed on a GammaMedica Triumph PET/CT/SPECT scanner, corrected for attenuation with a μ-map derived from the corresponding CT image, which was acquired immediately following the PET scan. The dynamic PET data was binned into 38 timeframes (8×15 s, 8×1 min, 10×2 min, 12×5) and reconstructed individually via an iterative MLEM (maximum likelihood expectation maximization) algorithm in 16 iterations.
PET images were to the CT image acquired from the same animal using AMIDE Data sets were cropped and all further image analysis was conducted using PMOD 3.3 (PMOD Technologies, Zurich, Switzerland). For maximum consistency, the data were coregistered to the Schiffer Px Rat rat brain template and data was derived from a whole brain VOI (volumes of interest) for time activity curves.

Data set [3] concerns the target HDAC6 (Homo sapiens (Human), UniProt Q9UBN7). The experiment in a line: IC50 assay by Nanosyn (Caliper microfluidics mobility shift detection). Format: biochemical. The following applies: Nanosyn (Table 1A).
Data set [4] deals with HDAC6 (Rattus norvegicus (Rat), UniProt A0A8I6GM68). Briefly: Autoradiography competition with radiolabeled Example 2 on rat brain slices. Format: binding, Sprague-Dawley rat. The following applies: Tubastatin A at 100 μM. The protocol: Sagittal slices of Sprague-Dawley rat brains were sectioned (10 μm) with a cryostat (Thermo Scientific HM550) and mounted onto ColorFrost Plus microscope slides (Fisher Scientific 12-550-18) and stored at −20° C. […] After 15 min, 50 μCi of the radiolabeled compound of Example 2 was added to each bath. After 15 minutes, all slides were washed by dipping 10× into buffer and subsequently submerged in 50 mL baths of buffer at 4° C. for 5 minutes. The slides were dried at 35° C. in a vacuum chamber. A phosphorus screen (Perkin Elmer 7001723) was exposed with the slides for 45 minutes and subsequently imaged with a Cyclone Plus Storage Phosphor (Perkin Elmer) detector. ImageJ was used to apply a Gaussian blur (3.0 radius) smoothing and a lookup table (Royal) with equivalent thresholds for brightness was applied. Raw intensity values from gray and white matter were quantified with the ImageJ measurement tool.
Sequence of HDAC6 (Rattus norvegicus (Rat), UniProt A0A8I6GM68) (A0A8I6GM68 whole entry): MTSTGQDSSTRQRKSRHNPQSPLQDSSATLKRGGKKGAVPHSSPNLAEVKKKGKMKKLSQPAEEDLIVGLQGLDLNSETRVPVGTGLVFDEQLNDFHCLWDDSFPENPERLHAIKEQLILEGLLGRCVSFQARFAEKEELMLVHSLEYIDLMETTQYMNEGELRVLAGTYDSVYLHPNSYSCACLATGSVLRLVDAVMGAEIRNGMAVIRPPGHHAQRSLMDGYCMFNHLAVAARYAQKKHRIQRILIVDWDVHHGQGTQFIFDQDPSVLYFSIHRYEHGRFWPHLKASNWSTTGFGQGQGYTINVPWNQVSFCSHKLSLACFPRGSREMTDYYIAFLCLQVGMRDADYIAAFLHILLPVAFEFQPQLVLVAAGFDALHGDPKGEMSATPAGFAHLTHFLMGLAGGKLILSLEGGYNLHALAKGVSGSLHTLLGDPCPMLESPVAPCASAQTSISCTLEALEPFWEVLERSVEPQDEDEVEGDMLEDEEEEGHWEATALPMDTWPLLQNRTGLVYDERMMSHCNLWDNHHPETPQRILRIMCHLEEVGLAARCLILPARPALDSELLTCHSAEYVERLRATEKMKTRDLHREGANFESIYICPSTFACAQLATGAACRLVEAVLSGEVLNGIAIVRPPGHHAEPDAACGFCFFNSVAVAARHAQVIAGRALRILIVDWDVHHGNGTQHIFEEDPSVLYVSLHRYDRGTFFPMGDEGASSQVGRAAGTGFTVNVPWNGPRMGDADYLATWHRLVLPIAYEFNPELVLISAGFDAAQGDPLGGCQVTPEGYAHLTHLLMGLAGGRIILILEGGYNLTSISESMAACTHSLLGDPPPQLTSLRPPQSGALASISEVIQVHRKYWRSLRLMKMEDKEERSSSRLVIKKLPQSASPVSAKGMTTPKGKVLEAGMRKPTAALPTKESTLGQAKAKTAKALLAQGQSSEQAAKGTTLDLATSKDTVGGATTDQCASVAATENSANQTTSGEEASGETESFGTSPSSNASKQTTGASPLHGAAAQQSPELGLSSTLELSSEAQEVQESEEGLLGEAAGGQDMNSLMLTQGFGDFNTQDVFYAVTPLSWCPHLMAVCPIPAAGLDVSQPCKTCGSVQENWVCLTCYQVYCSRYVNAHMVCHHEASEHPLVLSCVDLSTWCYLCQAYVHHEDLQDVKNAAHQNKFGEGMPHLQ

Sequence of HDAC6 (Homo sapiens (Human), UniProt Q9UBN7) (Q9UBN7 whole entry): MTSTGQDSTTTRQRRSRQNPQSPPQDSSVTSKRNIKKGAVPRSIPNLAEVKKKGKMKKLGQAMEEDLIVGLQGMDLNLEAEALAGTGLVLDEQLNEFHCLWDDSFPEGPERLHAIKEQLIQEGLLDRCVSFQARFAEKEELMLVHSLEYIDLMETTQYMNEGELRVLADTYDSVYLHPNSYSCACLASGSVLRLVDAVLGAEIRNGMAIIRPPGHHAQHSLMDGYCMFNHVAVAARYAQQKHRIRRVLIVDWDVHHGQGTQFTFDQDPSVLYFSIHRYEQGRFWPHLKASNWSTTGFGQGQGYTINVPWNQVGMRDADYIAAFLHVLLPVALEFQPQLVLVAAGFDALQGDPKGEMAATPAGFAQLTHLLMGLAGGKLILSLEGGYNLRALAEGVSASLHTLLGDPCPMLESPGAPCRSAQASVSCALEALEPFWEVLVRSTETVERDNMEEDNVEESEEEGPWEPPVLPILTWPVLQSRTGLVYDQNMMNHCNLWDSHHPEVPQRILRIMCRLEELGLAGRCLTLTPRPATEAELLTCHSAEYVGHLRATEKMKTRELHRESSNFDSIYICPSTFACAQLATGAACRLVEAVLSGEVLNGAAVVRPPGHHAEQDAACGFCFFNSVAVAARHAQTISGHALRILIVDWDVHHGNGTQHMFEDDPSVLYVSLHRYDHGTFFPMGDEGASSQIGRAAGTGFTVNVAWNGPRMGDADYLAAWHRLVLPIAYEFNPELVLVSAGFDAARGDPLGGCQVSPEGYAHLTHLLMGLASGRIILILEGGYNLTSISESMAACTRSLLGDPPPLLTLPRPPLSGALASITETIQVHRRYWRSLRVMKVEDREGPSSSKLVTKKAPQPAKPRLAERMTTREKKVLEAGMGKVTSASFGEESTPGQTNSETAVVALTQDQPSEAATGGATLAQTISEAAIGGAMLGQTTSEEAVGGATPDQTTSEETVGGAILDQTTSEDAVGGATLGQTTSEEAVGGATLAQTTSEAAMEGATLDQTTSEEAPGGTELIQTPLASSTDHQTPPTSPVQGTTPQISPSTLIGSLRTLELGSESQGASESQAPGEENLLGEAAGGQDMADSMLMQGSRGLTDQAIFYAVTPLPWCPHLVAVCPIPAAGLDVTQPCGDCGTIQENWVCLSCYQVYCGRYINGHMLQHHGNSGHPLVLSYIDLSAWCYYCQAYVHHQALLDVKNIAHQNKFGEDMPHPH

For `O=C(CCCCCCNC(=O)c1cnc(N(c2ccccc2)c2ccccc2)nc1)NO` [ACY-1215, ricolinostat], in data set [1] (ACY1215 5 μM), the “acetylation of H4K12” value was “significantly increased” and the “amount of cellular acetyl-α-Tubulin” value is “increased”. Also, the “Brain-penetrant?” value in data set [2] is “−”.
On to `CC(=O)Nc1ccc(C(=O)Nc2ccccc2N)cc1` [CI-994, tacedinaline], for which the “Histone acetylation (H3K9 and H4K12)” value in data set [1] is “significantly increased”. Further, the “amount of cellular acetyl-α-Tubulin” value in data set [1] (ACY1215 5 μM) is listed as “did not increase”.
In the case of `CN(Cc1ccc(C(=O)NO)cc1[18F])CC12CC3CC(CC(C3)C1)C2` [Example 2, 4-((((Adamantan-1-yl)methyl)(methyl)amino)methyl)-3-[^18F]fluoro-N-hydroxybenzamide], in “PET/CT imaging in rats” (radiotracer, PET), the “brain uptake and retention” value is on record as “excellent”. The “off-rate in preclinical PET” value in “PET/CT imaging in rats” (rat, in vivo) is “slow”.
In the case of `O=C(NO)c1ccc(CNCC23CC4CC(CC(C4)C2)C3)cc1F` [Example 8, 4-((((Adamantan-1-yl)methyl)amino)methyl)-2-fluoro-N-hydroxybenzamide], the concentration for half-maximal inhibition (IC50) on HDAC6 [3] is 89 nM.
On the same count and under the same terms, then `O=C(NO)c1cc(F)c(CNCC23CC4CC(CC(C4)C2)C3)c(F)c1` [Example 9, 4-((((Adamantan-1-yl)methyl)amino)methyl)-3,5-difluoro-N-hydroxybenzamide], with 13.6 nM; and `O=C(NO)c1ccc(CNCC23CC4CC(CC(C4)C2)C3)c(C(F)(F)F)c1` [Example 10, 4-((((adamantan-1-yl)methyl)amino)methyl)-3-trifluoromethyl-N-hydroxybenzamide], with 1020 nM; and `Cc1cc(C(=O)NO)ccc1CNCC12CC3CC(CC(C3)C1)C2` [Example 11, 4-((((adamantan-1-yl)methyl)amino)methyl)-3-methyl-N-hydroxybenzamide], with 574 nM.
As to `CN(Cc1ccc(C(=O)NO)cc1)CC12CC3CC(CC(C3)C1)C2` [Example 12, 4-(((((3r,5r,7r)-adamantan-1-yl)methyl)(methyl)amino)methyl)-N-hydroxybenzamide], the IC50 at HDAC6 [3] was 81 nM.
Still for that read-out and setting: then `O=C(NO)c1ccc(CNCC23CC4CC(CC(C4)C2)C3)nc1` [Example 13, 6-((((adamantan-1-yl)methyl)amino)methyl)-N-hydroxynicotinamide], with 26.7 nM; and `O=C(NO)c1ccc(CNCC23CC4CC(CC(C4)C2)C3)c(Cl)c1` [Example 14, 4-((((adamantan-1-yl)methyl)amino)methyl)-3-chloro-N-hydroxybenzamide], with 74.8 nM; and `O=C(NO)c1ccc(CNCC23CC4CC(CC(C4)C2)C3)c(Br)c1` [Example 15, 4-((((adamantan-1-yl)methyl)amino)methyl)-3-bromo-N-hydroxybenzamide], with 59.9 nM.
Consider `O=C(NO)c1ccc(CNCC23CC4CC(CC(C4)C2)C3)c(F)c1` [Example 16, 4-(((((3r,5r,7r)-adamantan-1-yl)methyl)amino)methyl)-3-fluoro-N-hydroxybenzamide], for which, on HDAC6 [3], the half-inhibitory concentration (IC50) came to 12 nM.
Same read-out and setting: under `O=C(NO)c1ccc(CNCC23CC4CC(CC(C4)C2)C3)cc1` [Example 17, 4-(((((3r,5r,7r)-adamantan-1-yl)methyl)amino)methyl)-N-hydroxybenzamide] stands 35 nM; under `O=C(NO)c1ccc(CNC23CC4CC(CC(C4)C2)C3)cc1` [Example 18, 4-((((3s,5s,7s)-adamantan-1-yl)amino)methyl)-N-hydroxybenzamide], 1380 nM.
Same read-out and setting: then `CC(CC12CC3CC(CC(C3)C1)C2)NCc1ccc(C(=O)NO)cc1` (stereo not shown) [Example 19, 4-(((1-(adamantan-1-yl)propan-2-yl)amino)methyl)-N-hydroxybenzamide], with 323 nM.
The same measure, in the same setting: then `CCC(NCc1ccc(C(=O)NO)cc1)C12CC3CC(CC(C3)C1)C2` (stereo not shown) [Example 21, 4-(((1-((3r,5r,7r)-adamantan-1-yl)propyl)amino)methyl)-N-hydroxybenzamide], with 213 nM; and `CCC(N(C)Cc1ccc(C(=O)NO)cc1)C12CC3CC(CC(C3)C1)C2` (stereo not shown) [Example 22, 4-(((1-((3r,5r,7r)-adamantan-1-yl)propyl)(methyl)amino)methyl)-N-hydroxybenzamide], with 121 nM.
With `CC1(C)C2CCC(CNCc3ccc(C(=O)NO)cc3)C1C2` (stereo not shown) [Example 23, 4-((((6,6-dimethylbicyclo[3.1.1]heptan-2-yl)methyl)amino)methyl)-N-hydroxybenzamide], on HDAC6 [3], the IC50 stood at 149 nM.
`CCCCCN(Cc1ccc(C(=O)NO)cc1)CC1CCC2CC1C2(C)C` (stereo not shown) [Example 24, 4-((((6,6-dimethylbicyclo[3.1.1]heptan-2-yl)methyl)(pentyl)amino)methyl)-N-hydroxybenzamide]: the IC50 at HDAC6 [3] worked out at 1190 nM.
Still for that read-out and setting: under `O=C(NO)c1ccc(CNCC2CCCCC2)cc1` [Example 25, 4-(((cyclohexylmethyl)amino)methyl)-N-hydroxybenzamide] stands 84 nM.
Take `CN1CCc2c(c3ccccc3n2Cc2ccc(C(=O)NO)cc2)C1` [Tubastatin A]: in data set [1], the “Histone acetylation (H3K9 and H4K12)” value is on record as “remained unaltered”. Further, in data set [1] (ACY1215 5 μM), the “amount of cellular acetyl-α-Tubulin” value is “increased”. On HDAC6 [4], the “amount of bound radioactivity (radiolabeled Example 2) on rat brain slices” value is given as “reduce the amount of bound radioactivity to the same background as 10 μM Example 1”. In addition, in data set [2], the “Brain-penetrant?” value is listed as “+/−”.

What is called IC50 is the concentration at which inhibition is half-maximal.
